Experimental data taken from PMC6576746, “Rational discovery of dual-indication multi-target PDE/Kinase inhibitor for precision anti-cancer therapy using structural systems pharmacology” (PLoS Computational Biology, 2019).

Experiments:
Assay in all cases: cells
Set-up in all cases: species or system panel of human cancer cell lines; Eurofins OncoPanel proliferation; nuclei count by high-content fluorescence imaging, 10-point dose response
A172 = conditions: Homo sapiens, A 172, 72 h, cell count, 3 days
Method in brief: (§1)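 Cells in RPMI 1640/10% FBS or special medium received compound the day after seeding, with a time-zero plate; 3-day incubation at 37°C, 5% CO2. Nuclei imaged by fluorescence microscopy; 10 half-log doses from 100 μM, 0.1% DMSO. EC50, IC50, GI50 and activity area (0–10) from curve fits.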

BC-1 = conditions: Homo sapiens, BC1, 72 h, cell count, 3 days
Method in brief: as §1

CRO-AP2 = conditions: Homo sapiens, CRO-AP2, 72 h, cell count, 3 days
Method in brief: as §1

EB2 = conditions: Homo sapiens, EB2, 72 h, cell count, 3 days
Method in brief: as §1

HT-1080 = conditions: Homo sapiens, HT-1080, 72 h, cell count, 3 days
Method in brief: as §1

Hs 821.T = conditions: 72 h, cell count, 3 days
Method in brief: as §1

LS411N = conditions: Homo sapiens, LS-411N, 72 h, cell count, 3 days
Method in brief: as §1

M059J = conditions: Homo sapiens, M059J, 72 h, cell count, 3 days
Method in brief: as §1

NCI-H292 = conditions: Homo sapiens, NCI-H292, 72 h, cell count, 3 days
Method in brief: as §1

RPMI 8226 = conditions: Homo sapiens, RPMI-8226, 72 h, cell count, 3 days
Method in brief: as §1

SK-UT-1 = conditions: Homo sapiens, SK-UT-1, 72 h, cell count, 3 days
Method in brief: as §1

SW403 = conditions: Homo sapiens, SW-403, 72 h, cell count, 3 days
Method in brief: as §1

SaOS2 = conditions: Homo sapiens, SAOS-2, 72 h, cell count, 3 days
Method in brief: as §1

TE 125.T = conditions: 72 h, cell count, 3 days
Method in brief: as §1

[1] = 50% of maximum possible response

C[C@@H]1CC(=O)NN=C1c1ccc(NN=C(C#N)C#N)cc1 [levosimendan] showed an IC50 (A172; [1]) of 55.8 µM, a GI50 (A172; corrected for time zero) of 44.8 µM and an EC50 (A172; curve inflection point) of 55.8 µM. For the same molecule, the IC50 (BC-1; [1]) was 18.9 µM, the GI50 (BC-1; corrected for time zero) was 14.6 µM and the EC50 (BC-1; curve inflection point) was 18.9 µM. It also gave an IC50 (CRO-AP2; [1]) of 10.3 µM, a GI50 (CRO-AP2; corrected for time zero) of 8.29 µM and an EC50 (CRO-AP2; curve inflection point) of 9.97 µM. It also gave an IC50 (EB2; [1]) of 34.4 µM, a GI50 (EB2; corrected for time zero) of 24.5 µM and an EC50 (EB2; curve inflection point) of 34.4 µM. The IC50 (HT-1080; [1]) was 11.7 µM, the GI50 (HT-1080; corrected for time zero) was 10.9 µM and the EC50 (HT-1080; curve inflection point) was 11.7 µM. For the same molecule, the IC50 (Hs 821.T; [1]) was > 100 µM, the GI50 (Hs 821.T; corrected for time zero) was > 100 µM and the EC50 (Hs 821.T; curve inflection point) was > 100 µM. The IC50 (LS411N; [1]) was > 100 µM, the GI50 (LS411N; corrected for time zero) was > 100 µM and the EC50 (LS411N; curve inflection point) was > 100 µM. The IC50 (M059J; [1]) was 51.5 µM, the GI50 (M059J; corrected for time zero) was 38.5 µM and the EC50 (M059J; curve inflection point) was 48.8 µM. It also gave an IC50 (NCI-H292; [1]) of 40.3 µM, a GI50 (NCI-H292; corrected for time zero) of 34.4 µM and an EC50 (NCI-H292; curve inflection point) of 40.3 µM. For the same molecule, the IC50 (RPMI 8226; [1]) was 25.1 µM, the GI50 (RPMI 8226; corrected for time zero) was 17.1 µM and the EC50 (RPMI 8226; curve inflection point) was 25.1 µM. For the same molecule, the IC50 (SK-UT-1; [1]) was 11.8 µM, the GI50 (SK-UT-1; corrected for time zero) was 9.1 µM and the EC50 (SK-UT-1; curve inflection point) was 11.8 µM. The IC50 (SW403; [1]) was 33.2 µM, the GI50 (SW403; corrected for time zero) was 14.4 µM and the EC50 (SW403; curve inflection point) was 28.7 µM. It also gave an IC50 (SaOS2; [1]) of 54.5 µM, a GI50 (SaOS2; corrected for time zero) of 35.7 µM and an EC50 (SaOS2; curve inflection point) of 54.5 µM. The IC50 (TE 125.T; [1]) was > 100 µM, the GI50 (TE 125.T; corrected for time zero) was 71.4 µM and the EC50 (TE 125.T; curve inflection point) was > 100 µM.
